Converted amounts (≈) assume the structure as drawn. Like-named read-outs stand apart in the source and are kept apart here.
How the values were obtained:
[1] = test system: Staphylococcus aureus SA161, HA-MRSA, tetracycline-resistant, tet(M); test: MIC assay, SA161; type: cell-based
[2] = test system: Escherichia coli EC107, ATCC 25922; test: MIC assay, EC107; type: cell-based
[3] = test system: Enterococcus faecalis EF159, tetracycline-resistant, tet(M); test: MIC assay, EF159; type: cell-based
[4] = test system: Streptococcus pneumoniae SP160, tetracycline-resistant, tet(M); test: MIC assay, SP160; type: cell-based
[5] = test system: E. coli DH10B(pBAD-tetK), expressing tet(K); test: MIC against recombinant E. coli expressing tet(K); type: cell-based; conditions: for MIC: Escherichia coli
Source text: (§1) Constructs were transformed into E. coli DH10B for expression. Recombinant strains were pre-induced under optimized conditions with L-arabinose prior to use as inocula in CLSI standardized MIC assays.

[6] = test system: Klebsiella pneumoniae KP109, ATCC 13883; test: MIC assay, KP109; type: cell-based
[7] = test system: Pseudomonas aeruginosa PA111, ATCC 27853; test: MIC assay, PA111; type: cell-based
[8] = test system: Klebsiella pneumoniae KP153, tetracycline-resistant, tet(A), MDR, ESBL+; test: MIC assay, KP153; type: cell-based
[9] = test system: Staphylococcus aureus SA101, ATCC 29213, MSSA; test: MIC assay, SA101; type: cell-based
[10] = test system: Enterobacter cloacae EC108, ATCC 13047; test: MIC assay, EC108; type: cell-based
[11] = test system: S. pneumoniae clinical isolates; test: MIC50, MIC90 and MIC range, panel of clinical isolates (Example 20); type: cell-based; conditions: 19 isolates, in µg/mL
Description: (§2) The assays were run as follows.
(§3) Both values, as well as the MIC range (the lowest and highest MIC value observed for a collection of organisms), were determined for the isolates listed in Table 3.

[12] = test system: S. aureus clinical isolates; test: as above; type: cell-based; conditions: MRSA, 30 isolates; in µg/mL
Description: as §2, §3

[13] = test system: E. faecalis clinical isolates; test: as above; type: cell-based; conditions: 24 isolates, in µg/mL
Description: as §2, §3

[14] = test system: Staphylococcus aureus SA158, tetracycline-resistant tet(K); test: MIC assay, SA158; type: cell-based
[15] = test system: Acinetobacter baumannii AB110, ATCC 19606; test: MIC assay, AB110; type: cell-based
[16] = test system: H. influenzae isolates (Eurofins-Medinet, recent clinical isolates); test: MIC50 and MIC90 analysis (Example 22)
[17] = test system: E. coli DH10B(pBAD-tetM), expressing tet(M); test: MIC against recombinant E. coli expressing tet(M); type: cell-based
Source text: as §1

[18] = test system: Streptococcus pneumoniae SP106, ATCC 49619; test: MIC assay, SP106; type: cell-based
[19] = test system: Enterococcus faecalis EF103, ATCC 29212; test: MIC assay, EF103; type: cell-based; conditions: for MIC: Enterococcus faecalis
[20] = test system: Staphylococcus aureus SA100, ATCC 13709, MSSA, Smith strain; test: MIC assay, SA100; type: cell-based
[21] = test system: Escherichia coli EC155, tetracycline-resistant, tet(A); test: MIC assay, EC155; type: cell-based
[22] = test system: S. pneumoniae isolates (Eurofins-Medinet, recent clinical isolates); test: MIC50 and MIC90 analysis (Example 22)
Description: Frozen bacterial strains were thawed and subcultured onto Mueller Hinton Broth (MHB) or other appropriate media (Streptococcus requires blood and Haemophilus requires hemin and NAD). Following incubation overnight, the strains were subcultured onto Mueller Hinton Agar and again incubated overnight. […] Isolated colonies were selected to prepare a starting inoculum equivalent to a 0.5 McFarland standard. […] Antibiotics (stored frozen, thawed and used within 3 hours of thawing) and compounds were further diluted to the desired working concentrations.
The assays were run as follows. Fifty μL of MHB was added to wells 2-12 of a 96-well plate. One hundred μL of appropriately diluted antibiotic or compound was added to well 1. Fifty μL of antibiotics or compound was removed from well 1 and added to well 2 and the contents of well 2 mixed by pipetting up and down five times. Fifty μL of the mixture in well 2 was removed and added to well 3 and mixed as above. Serial dilutions were continued in the same manner through well 12. Fifty μL was removed from well 12 so that all contained 50 μL. Fifty μL of the working inoculum was then added to all test wells. A growth control well was prepared by adding 50 μL of working inoculum and 50 μL of MHB to an empty well. The plates were then incubated at 37° C. overnight, removed from the incubator and each well was read on a plate reading mirror. The lowest concentration (MIC) of test compound that inhibited the growth of the bacteria was recorded.
MIC, MIC50 and MIC90 values were determined according to CLSI methodology. S. pneumoniae and H. influenzae isolates were obtained from Eurofins-Medinet and are recent clinical isolates. S. aureus strains were collected from various geographical sources.

## C[C@H]1c2cccc(O)c2C(=O)C2=C(O)[C@]3(O)C(=O)C(C(N)=O)=C(O)[C@@H](N(C)C)[C@@H]3[C@@H](O)[C@@H]21 [Doxycycline, doxycycline, reference compound]
[1]; Table 8, read-out: MIC S. aureus MRSA, tetM
  MIC: 8 µg/mL (≈ 18 µM)
[1]; Table 9, read-out: MIC MRSA (tet)M SA161
  MIC: 8 µg/mL (≈ 18 µM)
[2]; ATCC25922, Table 8, read-out: MIC E. coli ATCC 25922
  MIC: 1 µg/mL (≈ 2.25 µM)
[2]; ATCC25922, Table 9, read-out: MIC E. coli ATCC 25922
  MIC: 1 µg/mL (≈ 2.25 µM)
[3]; Table 8, read-out: MIC E. faecalis tetM
  MIC: 4 µg/mL (≈ 9 µM)
[3]; Table 9, read-out: MIC E. faecalis EF159 (tet)M
  MIC: 8 µg/mL (≈ 18 µM)
[4]; Table 8, read-out: MIC S. pneumoniae tetM
  MIC: 4 µg/mL (≈ 9 µM)
[4]; Table 9, read-out: MIC S. pneum SP160 (tet)M
  MIC: 8 µg/mL (≈ 18 µM)
[5]; read-out: MIC, TetK Induced
  MIC: 8 µg/mL
[5]; read-out: MIC, Uninduced
  MIC: 2 µg/mL
[5]; ratio of TetK induced to uninduced MIC
  MIC ratio, TetK induced to uninduced: 4
[5]; tet(K) expressed vs not expressed
  MIC in the presence of tet(K) expression, fold higher than when tet(K) was not expressed: 4 fold
[6]; ATCC13883, Table 9, read-out: MIC Klebsiella pneum ATCC 13883
  MIC: 2 µg/mL (≈ 4.5 µM)
[7]; ATCC27853, Table 9, read-out: MIC P. aeruginosa ATCC 27853
  MIC: > 32 µg/mL
[8]; Table 9, read-out: MIC Klebsiella pneum KP153 (tet)A
  MIC: 32 µg/mL (≈ 72 µM)
[9]; Table 8, read-out: MIC S. aureus ATCC 29213
  MIC: 0.13 µg/mL (≈ 0.293 µM)
[9]; Table 9, read-out: MIC S. aureus ATCC 29213
  MIC: 0.5 µg/mL (≈ 1.13 µM)
[10]; ATCC13047, Table 9, read-out: MIC Enterobacter cloaceae ATCC 13047
  MIC: 4 µg/mL (≈ 9 µM)
[11]
  MIC Range: <=0.016-16
[12]
  MIC Range: 0.063-8
[13]
  MIC Range: 0.063-16
[14]; Table 8, read-out: MIC S. aureus tetK
  MIC: 2 µg/mL (≈ 4.5 µM)
[14]; Table 9, read-out: MIC S. aureus SA158 (tet)K
  MIC: 2 µg/mL (≈ 4.5 µM)
[15]; ATCC19606, Table 9, read-out: MIC A.baum AB110
  MIC: 2 µg/mL (≈ 4.5 µM)
[16]; H. influenzae (n = 12)
  MIC Range: 0.5 to 4 µg/mL
[16]; Haemophilus influenzae
  MIC50: 1 µg/mL (≈ 2.25 µM)
  MIC90: 4 µg/mL (≈ 9 µM)
[17]; Escherichia coli, read-out: MIC, Uninduced
  MIC: 4 µg/mL
[17]; ratio of MICs
  Ratio (TetM induced / Uninduced): 8
[18]; ATCC49619, Table 8, read-out: MIC S. pneumoniae ATCC 49619
  MIC: 0.06 µg/mL (≈ 0.135 µM)
[18]; ATCC49619, Table 9, read-out: MIC S. pneum ATCC 49619
  MIC: 0.25 µg/mL (≈ 0.563 µM)
[19]; ATCC29212, Table 8, read-out: MIC E. faecalis ATCC 29212
  MIC: 4 µg/mL (≈ 9 µM)
[19]; Table 9
  MIC E. faecalis ATCC 29212: 4 µg/mL (≈ 9 µM)
[20]; Table 9, read-out: MIC S. aureus ATCC 13709
  MIC: 0.13 µg/mL (≈ 0.293 µM)
[21]; Table 8, read-out: MIC E. coli tetA
  MIC: 32 µg/mL (≈ 72 µM)
[21]; Table 9, read-out: MIC E. coli EC155 (tet)A
  MIC: 32 µg/mL (≈ 72 µM)
[22]; S. pneumoniae (n = 20)
  MIC Range: ≦0.016-16 μg/ml
[22]; Streptococcus pneumoniae
  MIC50: 8 µg/mL (≈ 18 µM)
  MIC90: 8 µg/mL (≈ 18 µM)

## CN(C)[C@@H]1C(O)=C(C(N)=O)C(=O)[C@@]2(O)C(O)=C3C(=O)c4c(O)cccc4C[C@H]3C[C@@H]12 [San., Sancycline, reference compound]
[2]; ATCC25922, read-out: MIC EC107 25922
  MIC: 8 µg/mL (≈ 19.3 µM)
[3]; read-out: MIC EF159 tetM
  MIC: 8 µg/mL (≈ 19.3 µM)
[4]; read-out: MIC SP160 tetM
  MIC: 8 µg/mL (≈ 19.3 µM)
[6]; ATCC13883, read-out: MIC KP109 13883
  MIC: 8 µg/mL (≈ 19.3 µM)
[7]; ATCC27853, read-out: MIC PA111 27853
  MIC: > 32 µg/mL
[8]; read-out: MIC KP153 tetA
  MIC: 32 µg/mL (≈ 77.2 µM)
[9]; read-out: MIC SA101 29213
  MIC: 0.5 µg/mL (≈ 1.21 µM)
[10]; ATCC13047, read-out: MIC EC108 13047
  MIC: 8 µg/mL (≈ 19.3 µM)
[14]; read-out: MIC SA158 tetK
  MIC: 4 µg/mL (≈ 9.65 µM)
[15]; ATCC19606, read-out: MIC AB110 19606
  MIC: 0.25 µg/mL (≈ 0.603 µM)
[18]; ATCC49619, read-out: MIC SP106 49619
  MIC: 0.25 µg/mL (≈ 0.603 µM)
[19]; ATCC29212, read-out: MIC EF103 29212
  MIC: 8 µg/mL (≈ 19.3 µM)
[20]; read-out: MIC SA100 13709
  MIC: 1 µg/mL (≈ 2.41 µM)
[21]; read-out: MIC EC155 tetA
  MIC: 32 µg/mL (≈ 77.2 µM)
